Laboratory results as given in paper PMC8566951, “Antifungal Activity of ToAP2D Peptide Against Sporothrix globosa” (Frontiers in Bioengineering and Biotechnology, 2021).
No end group written: not given here.

Legend:
[1] = tested on: S. globosa; assay: S. globosa footpad infection in mice, skin lesion area; type: in vivo, BALB/c mice; settings: itraconazole gavage 60 mg/kg daily from Day 10, mean ± SD, n = 6
Experimental: The animal protocol was approved by the Institutional Ethics Committee for Animal Use in Research, and our animal care followed Animal Care guidelines of the Jilin University. Mice were randomly divided into study group (n = 51) and the healthy control (HC) group (n = 6). Mice in the study group were injected with 0.05 ml S. globosa suspension (1 × 10^8 cfu/ml) on their footpads after alcohol cotton ball sterilization. The condition of the skin was monitored daily. […] After that, CO2 lattice laser was used to promote ToAP2D absorption, and the mice of the study group were further divided into infection group (n = 12), laser group (n = 12), laser + ToAP2D group (n = 12), and itraconazole group (n = 12), and the antifungal treatments were given subsequently.
In the laser group, the injection feet were subjected to CO2 lattice laser 10,600 nm irradiation at room temperature with an irradiation energy density of 120 mJ/mm^2. The laser scanning area was 15 mm × 15 mm with a lattice density of 0.3 mm and 25.0% coverage rate. The laser treatment was administered every […] on Day 10, 14, 18, and 22. In the laser + ToAP2D group, mice were subjected to CO2 lattice laser irradiation with the same parameters in the laser group to assist the absorption of ToAP2D. Almost immediately after laser irradiation, the antibacterial peptide ToAP2D (4 mg/ml, diluted with 0.9% normal saline) was repeatedly rolled onto the laser-irradiated part of the footpad, until it was completely absorbed every day. In the itraconazole group, mice were gavaged with itraconazole at a dose of 60 mg/kg daily. The size of the footpads of mice was measured every 3 days and analyzed using Photoshop. On Day 18 and 26, six mice in each group were sacrificed, and their feet tissues were collected for further skin histology and immunohistochemistry studies.

[2] = tested on: S. globosa; assay: Inhibition zone test (paper disk); type: cell-based, Sporothrix globosa; settings: 6 µL on 5 mm paper disk, 37°C, 72 h, repeated three times, 5.00 = disk diameter
Experimental: S. globosa was collected from clinical patients diagnosed with cutaneous sporotrichosis at our hospital. All strains were identified as S. globosa using mycelial-to-yeast phase conversion culture and molecular identification methods. All isolates were grown on Sabouraud’s dextrose agar. After 7 days of culture, the fungal colonies were transferred to brainheart infusion broth and incubated in a rotary shaker (150 rpm/min) at 37°C for another 7 days. S. globosa was centrifuged and resuspended in PBS and diluted to 1.0 × 10^8 cfu/ml.
The antifungal activity of ToAP2A, ToAP2C, and ToAP2D against S. globosa was analyzed using the inhibition zone test. S. globosa was collected and diluted to 1.0 × 10^8 cfu/ml with a hemocytometer. We then evenly inoculated on brainheart infusion broth agar plates with 50 µL aliquots of the dilution. Paper disks with 5 mm diameter were pasted on the surface of the solid culture medium after high-pressure sterilization. ToAP2A, ToAP2C, and ToAP2D (4/2/1 mg/ml) and the control sample (physiological saline with a concentration of 0.9%) were dripped onto the filter paper with 6 µL, respectively, and cultured in 37°C for 72 h to observe whether there is a zone of inhibition. The diameter of the inhibition zone was measured and recorded with a vernier caliper. The above steps were repeated three times to calculate the average value and standard deviation of the inhibition zone diameter of each sample.

[3] = tested on: S. globosa; assay: Minimal inhibitory concentration, microdilution assay; type: cell-based, Sporothrix globosa; settings: brainheart infusion broth, 1 × 10^8 cfu/ml, 37°C, 7 days, at least three experiments
Experimental: The minimal inhibitory concentration (MIC) of ToAP2D against S. globosa was determined using the microdilution assay. In brief, twofold serial dilutions of ToAP2D were prepared in 96-well polystyrene microplates to a final volume of 100 µL. Final concentrations of ToAP2D ranged from 5 mg/ml to 0.62 μg/ml. In each plate, wells were included without peptide as control. Then, 100 µL of the liquid medium (brainheart infusion broth) was added to each well with a final concentration of 1 × 10^8 cfu/ml for S. globosa. The plates were incubated at 37°C for 7 days. In addition, 20 µL of culture from each well was inoculated on the brainheart solid medium and cultured in a constant temperature incubator at 37°C for 7 days to observe the growth of colonies. […] The experiments were performed at least three times on separate dates.

[4] = Serum stability by inhibition zone test; type: in vitro ADME; settings: human serum diluted 1:1 with 0.9% normal saline, ToAP2D 4 mg/ml, 10 h at 37°C, read-out inhibition zone after 24 h
Experimental: The stability of ToAP2D in human serum was analyzed using the inhibition zone test. 5 ml of healthy human blood (from the physical examination center of our hospital) was extracted using a sterile syringe, stored at room temperature for 1 h, and then stored at 4°C overnight. After 24 h, the blood was centrifuged at 1,000 rpm/min for 10 min, and 50 µL of serum in the supernatant was gently sucked out with a pipette gun. The serum was diluted with 50 µL of 0.9% normal saline, and then, the antimicrobial peptide ToAP2D was dissolved in the diluted serum.
To determine the stability of ToAP2D in human serum, ToAP2D (final concentration 4 mg/ml) was mixed with the diluted serum for 0, 0.5, 1, 2, 4, 6, 8, and 10 h at 37°C, respectively. In brief, S. globosa was inoculated on brainheart infusion broth agar plates, 5.0 mm paper disks were placed on top, and 6 µL aliquots of the serumpeptide mixture were added to the paper disks at each incubation time point. After 24 h of incubation, the inhibitory zones against S. globosa were measured and recorded.

[5] = Acute toxicity, HE staining of major organs; type: in vivo; settings: BALB/c mice, 60 mg/kg tail vein, organs after 24 h, n = 5
Experimental: To examine their toxicity, an in vivo animal study was performed. The 10 healthy BALB/c mice were randomly divided into ToAP2D group (n = 5) and the control group (n = 5). The mice in the ToAP2D group were injected with ToAP2D through the tail vein at a dose of 60 mg/kg, and the control group mice were injected with the same volume of normal saline. After 24 h, the major organs (e.g., brain, heart, liver, and kidney) of the mice were excised and fixed in 10% buffered formalin for 1 day. The tissues were then embedded in paraffin and sectioned for hematoxylin and eosin (HE) staining.

[6] = ref Guilhelmelli et al., 2016; cited from earlier work
Source text: (§1) As the biological characteristics of S. globosa are very similar to C. albicans, we then use ToAP2structure as a template, through reasonable molecular design and modification, to study the inhibitory e ...

[7] = tested on: Candida albicans; settings: ref Guilhelmelli et al., 2016; cited from earlier work
Source text: as §1

Molecule: CCC(C)n1ncn(-c2ccc(N3CCN(c4ccc(OCC5COC(Cn6cncn6)(c6ccc(Cl)cc6Cl)O5)cc4)CC3)cc2)c1=O (stereo not shown) [Itraconazole, itraconazole]
- Skin lesion area (mm^2) ([1]; Day14): 27.82 ± 2.84 ^** mm^2
- Skin lesion area (mm^2) ([1]; Day18): 21.47 ± 0.92 ^*** mm^2
- Skin lesion area (mm^2) ([1]; Day22): 14.94 ± 2.93 ^** mm^2
- Skin lesion area (mm^2) ([1]; Day26): 11.81 ± 0.85 mm^2

Molecule: GDKLIPGVMKLFRKK [ToAP2D]
- Inhibition zone (mm) mean ± standard deviation (SD) ([2]; 1 mg/ml): 5.00 ± 0.00 mm
- Inhibition zone (mm) mean ± standard deviation (SD) ([2]; 2 mg/ml): 6.86 ± 0.25 mm
- Inhibition zone (mm) mean ± standard deviation (SD) ([2]; 4 mg/ml): 11.56 ± 0.36 mm
- minimal inhibitory concentration (MIC) [3]: 156.25 µg/mL
- antifungal activity against S. globosa after incubation in serum, compared to the original drug [4]: > 90%
- acute toxicity (HE staining of main organs) [5]: no acute toxicity

Molecule: GAKLIPGVMKLFRKK [ToAP2C]
- Inhibition zone (mm) mean ± standard deviation (SD) ([2]; 1 mg/ml): 5.00 ± 0.00 mm
- Inhibition zone (mm) mean ± standard deviation (SD) ([2]; 2 mg/ml): 6.37 ± 0.27 mm
- Inhibition zone (mm) mean ± standard deviation (SD) ([2]; 4 mg/ml): 8.12 ± 0.33 mm

Molecule: FFGTLFKLGSKLIPGVMKLFSKKKER [ToAP2]
- cytotoxic activity [6]: low cytotoxic
- hemolytic activity [6]: low hemolytic
- growth of Candida albicans [7]: could inhibit the growth

Molecule: GSKLIPGVMKLFSKK [ToAP2A]
- Inhibition zone (mm) mean ± standard deviation (SD) ([2]; 1 mg/ml): 5.00 ± 0.00 mm
- Inhibition zone (mm) mean ± standard deviation (SD) ([2]; 2 mg/ml): 6.59 ± 0.34 mm
- Inhibition zone (mm) mean ± standard deviation (SD) ([2]; 4 mg/ml): 9.23 ± 0.34 mm
